Experiments:
Conditions in all cases: incubation time: 72 h
CAL-85-1 [1] = test: normalised response (% of control), CellTiter-Glo; higher = more viable cells (100 = DMSO, 0 = benzethonium chloride kill control)
Procedure: (§1)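 DSRT, 72 h incubation, CellTox Green / CellTiter-Glo readout. Signal is normalised to DMSO and benzethonium chloride controls. Value is the normalised response at dose 3.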

BT-549 [2] = test: as above
Procedure: as §1

HDQ-P1 [3] = test: as above
Procedure: as §1

SK-BR-3 = test: as above
Procedure: as §1

HCC1143 [4] = test: as above
Procedure: as §1

MCF-10A [5] = test: as above
Procedure: as §1

DU-4475 [6] = test: as above
Procedure: as §1

MDA-MB-453 [7] = test: as above
Procedure: as §1

HCC1937 [8] = test: as above
Procedure: as §1

CAL-51 [9] = test: as above
Procedure: as §1

CAL-120 [10] = test: as above
Procedure: as §1

CAL-148 [11] = test: as above
Procedure: as §1

MDA-MB-436 [12] = test: as above
Procedure: as §1

MDA-MB-231 [13] = test: as above
Procedure: as §1

HCC1599 [14] = test: as above
Procedure: as §1

BT-474 [15] = test: as above
Procedure: as §1

MDA-MB-468 [16] = test: as above
Procedure: as §1

MFM-223 [17] = test: as above
Procedure: as §1

Hs578T [18] = test: as above
Procedure: as §1

CAL-85-1 [19] = test: normalised response (% of control), CellTox Green; higher = less cell death (100 = DMSO, 0 = benzethonium chloride kill control)
Outline: (§2)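 In 384-well plates holding compound at 5 concentrations in 10-fold steps over a 10,000-fold range specific to each compound, breast cancer cell lines were seeded as 20 µl suspension and incubated 72 h. CellTox Green fluorescence was measured at 485/520 nm, after which CellTiter-Glo luminescence was measured following 10 min at room temperature. Plate signals were normalised to 0.1 % DMSO (100) and a positive kill control (0), and each value is the normalised signal at a single concentration.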

BT-549 [20] = test: as above
Outline: as §2

HCC1143 [21] = test: as above
Outline: as §2

MCF-10A [22] = test: as above
Outline: as §2

DU-4475 [23] = test: as above
Outline: as §2

MDA-MB-453 [24] = test: as above
Outline: as §2

HCC1937 [25] = test: as above
Outline: as §2

CAL-51 [26] = test: as above
Outline: as §2

CAL-120 [27] = test: as above
Outline: as §2

CAL-148 [28] = test: as above
Outline: as §2

MDA-MB-436 [29] = test: as above
Outline: as §2

MDA-MB-231 [30] = test: as above
Outline: as §2

HCC1599 [31] = test: as above
Outline: as §2

BT-474 [32] = test: as above
Outline: as §2

MDA-MB-468 [33] = test: as above
Outline: as §2

MFM-223 [34] = test: as above
Outline: as §2

Hs578T [35] = test: as above
Outline: as §2

HDQ-P1 [36] = test: as above
Outline: as §2

Structure (SMILES)	normalised response (CAL-85-1 [1])	normalised response (BT-549 [2])	normalised response (HDQ-P1 [3])	normalised response (SK-BR-3)	normalised response (HCC1143 [4])	normalised response (MCF-10A [5])	normalised response (DU-4475 [6])	normalised response (MDA-MB-453 [7])	normalised response (HCC1937 [8])	normalised response (CAL-51 [9])	normalised response (CAL-120 [10])	normalised response (CAL-148 [11])	normalised response (MDA-MB-436 [12])	normalised response (MDA-MB-231 [13])	normalised response (HCC1599 [14])	normalised response (BT-474 [15])	normalised response (MDA-MB-468 [16])	normalised response (MFM-223 [17])	normalised response (Hs578T [18])	normalised response (CAL-85-1 [19])	normalised response (BT-549 [20])	normalised response (HCC1143 [21])	normalised response (MCF-10A [22])	normalised response (DU-4475 [23])	normalised response (MDA-MB-453 [24])	normalised response (HCC1937 [25])	normalised response (CAL-51 [26])	normalised response (CAL-120 [27])	normalised response (CAL-148 [28])	normalised response (MDA-MB-436 [29])	normalised response (MDA-MB-231 [30])	normalised response (HCC1599 [31])	normalised response (BT-474 [32])	normalised response (MDA-MB-468 [33])	normalised response (MFM-223 [34])	normalised response (Hs578T [35])	normalised response (HDQ-P1 [36])
CS(=O)(=O)c1ccc(C2=C(c3ccccc3)C(=O)OC2)cc1 [Rofecoxib] (100 nM)	102%	106%	98.7%	110%	108%	114%	102%	108%	95.8%	105%	104%	109%	105%	106%	99%	101%	104%	104%	109%	107%	95.7%	98.7%	88.5%	108%	106%	68.7%	111%	104%	101%	104%	117%	101%	104%	118%	88.2%	103%	–
CC1(C)NC(=O)N(c2ccc([N+](=O)[O-])c(C(F)(F)F)c2)C1=O [Nilutamide] (100 nM)	101%	101%	102%	109%	105%	105%	103%	103%	98.4%	109%	102%	119%	102%	101%	118%	105%	105%	110%	103%	102%	98.4%	119%	–	103%	99.1%	119%	109%	102%	96.7%	–	105%	108%	101%	148%	103%	109%	–
CN(N=O)C(=O)N[C@@H](C=O)[C@@H](O)[C@H](O)[C@H](O)CO [Streptozocin] (100 nM)	104%	100%	107%	102%	106%	109%	102%	103%	99.8%	106%	109%	107%	101%	112%	104%	102%	98.8%	103%	109%	107%	107%	114%	64.2%	105%	104%	73.6%	105%	107%	–	111%	113%	104%	103%	124%	75.2%	52.8%	–
COc1cc2nccc(Oc3ccc(NC(=O)C4(C(=O)Nc5ccc(F)cc5)CC4)cc3)c2cc1OC [Cabozantinib] (10 nM)	103%	102%	93.5%	94.3%	99.2%	97.2%	100%	100%	94.6%	111%	98%	110%	105%	99.3%	113%	93.9%	97.8%	99.4%	99.3%	96.5%	107%	104%	85.1%	99.5%	101%	102%	102%	98.1%	76%	96.2%	–	91.5%	95.6%	62.5%	100%	69.2%	–
COc1cc([C@@H]2c3cc4c(cc3[C@@H](O[C@@H]3O[C@@H]5CO[C@@H](C)O[C@H]5[C@H](O)[C@H]3O)[C@H]3COC(=O)[C@H]23)OCO4)cc(OC)c1O [Etoposide] (100 nM)	102%	94.6%	102%	109%	100%	106%	82.9%	113%	94.9%	107%	102%	103%	98.3%	120%	110%	99.9%	100%	110%	111%	95.2%	92.4%	98.7%	75%	98.8%	102%	111%	112%	106%	92%	107%	112%	110%	101%	56.9%	104%	–	92%
Cn1c(Nc2ccc(C(F)(F)F)cc2)nc2cc(Oc3ccnc(-c4ncc(C(F)(F)F)[nH]4)c3)ccc21 [RAF265] (10 nM)	99.6%	99.5%	99.2%	108%	102%	118%	105%	106%	100%	83.3%	107%	113%	109%	110%	116%	107%	102%	105%	106%	106%	98.1%	116%	64.3%	103%	108%	–	92.7%	101%	103%	90.1%	104%	107%	96.2%	158%	103%	98%	52.6%
O=P1(NCCCl)OCCCN1CCCl (stereo not drawn) [Ifosfamide] (100 nM)	95.1%	102%	98.9%	89.5%	99.7%	97.9%	95.3%	88.8%	98.2%	68.5%	94.3%	92%	94.9%	91.8%	101%	97%	94.8%	91.2%	96.8%	110%	112%	74.1%	102%	97.9%	89.3%	–	90.4%	98%	90.8%	102%	87.4%	95.1%	100%	194%	97.8%	56.1%	88%

From the supplement of paper PMC4862054
